Reference: ChEMBL document CHEMBL3739357, “Replacement of cardiotoxic aminopiperidine linker with piperazine moiety reduces cardiotoxicity? Mycobacterium tuberculosis novel bacterial topoisomerase inhibitors” (Bioorg Med Chem, 2016)
Converted amounts (≈) assume the structure as drawn.

Key:
[1] = Cytotoxicity against mouse RAW264.7 cells at 50 uM after 48 hrs by MTT assay; type: cell-based; details: read-out: INH
[2] = molecular target: DNA gyrase subunit A/DNA gyrase subunit B (Mycobacterium tuberculosis (strain ATCC 25618 / H37Rv), UniProt P9WG45+P9WG47); assay: Inhibition of Mycobacterium tuberculosis DNA gyrase assessed as inhibition of supercoiling activity using relaxed pBR322 plasmid as substrate after 30 mins
DNA gyrase subunit A/DNA gyrase subunit B, sequence (P9WG45 whole entry): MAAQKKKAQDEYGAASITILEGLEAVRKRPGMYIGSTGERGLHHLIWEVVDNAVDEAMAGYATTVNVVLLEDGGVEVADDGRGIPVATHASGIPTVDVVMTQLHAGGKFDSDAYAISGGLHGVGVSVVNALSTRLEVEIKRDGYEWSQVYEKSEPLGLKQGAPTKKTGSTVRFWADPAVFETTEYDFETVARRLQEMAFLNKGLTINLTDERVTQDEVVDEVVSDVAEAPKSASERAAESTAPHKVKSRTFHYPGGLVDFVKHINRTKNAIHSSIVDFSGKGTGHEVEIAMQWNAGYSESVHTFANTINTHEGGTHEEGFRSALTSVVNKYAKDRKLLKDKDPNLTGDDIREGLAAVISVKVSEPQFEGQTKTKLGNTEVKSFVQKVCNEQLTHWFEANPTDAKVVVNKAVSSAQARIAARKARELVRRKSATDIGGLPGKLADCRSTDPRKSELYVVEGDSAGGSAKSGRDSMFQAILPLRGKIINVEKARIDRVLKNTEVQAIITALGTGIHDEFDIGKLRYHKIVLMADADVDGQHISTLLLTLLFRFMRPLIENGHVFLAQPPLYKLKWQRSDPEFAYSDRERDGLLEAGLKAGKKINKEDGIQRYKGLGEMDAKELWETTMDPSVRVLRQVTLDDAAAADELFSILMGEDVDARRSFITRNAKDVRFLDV
DNA gyrase subunit A/DNA gyrase subunit B, sequence (P9WG47 whole entry): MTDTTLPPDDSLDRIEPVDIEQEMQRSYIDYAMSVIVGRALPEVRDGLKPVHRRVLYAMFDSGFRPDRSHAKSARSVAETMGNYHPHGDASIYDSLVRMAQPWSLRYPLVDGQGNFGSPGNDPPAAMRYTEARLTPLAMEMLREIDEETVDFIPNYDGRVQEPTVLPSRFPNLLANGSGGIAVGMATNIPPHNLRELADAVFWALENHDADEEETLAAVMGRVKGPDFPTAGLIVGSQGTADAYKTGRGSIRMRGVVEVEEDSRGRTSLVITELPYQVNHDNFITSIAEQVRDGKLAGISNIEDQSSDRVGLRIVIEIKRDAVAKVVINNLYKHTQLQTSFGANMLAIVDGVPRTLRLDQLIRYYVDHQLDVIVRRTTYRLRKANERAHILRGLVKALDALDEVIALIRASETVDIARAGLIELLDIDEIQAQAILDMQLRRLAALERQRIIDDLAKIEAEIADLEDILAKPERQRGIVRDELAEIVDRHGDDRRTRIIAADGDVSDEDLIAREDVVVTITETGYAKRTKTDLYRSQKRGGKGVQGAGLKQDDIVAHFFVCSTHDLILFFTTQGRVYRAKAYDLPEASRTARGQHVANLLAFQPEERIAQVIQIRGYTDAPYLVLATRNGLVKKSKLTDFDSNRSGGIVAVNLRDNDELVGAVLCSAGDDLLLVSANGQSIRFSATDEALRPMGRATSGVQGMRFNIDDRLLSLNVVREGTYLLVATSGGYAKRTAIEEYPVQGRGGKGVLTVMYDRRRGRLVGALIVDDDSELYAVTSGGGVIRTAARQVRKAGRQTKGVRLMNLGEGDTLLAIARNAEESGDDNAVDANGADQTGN

[3] = tested on: Mycobacterium tuberculosis; assay: Antimycobacterial activity against Mycobacterium tuberculosis H37Rv after 7 days by alamar blue assay; type: functional; details: 168 h
[4] = organism: Danio rerio; assay: Toxicity in zebrafish embryo assessed as heart rate at 10 uM after 4 hrs; type: organism-based; details: in vivo
[5] = organism: Danio rerio; assay: Toxicity in zebrafish embryo assessed as artrio-ventricular ratio at 10 uM after 4 hrs; type: organism-based; details: in vivo
[6] = organism: Danio rerio; assay: Toxicity in zebrafish embryo assessed as heart rate at 30 uM after 4 hrs; type: organism-based; details: in vivo
[7] = organism: Danio rerio; assay: Toxicity in zebrafish embryo assessed as artrio-ventricular ratio at 30 uM after 4 hrs; type: organism-based; details: in vivo

Compound	cytotoxicity at 48 h, 50 µM [1] [%]	IC50 [2] [µM]	MIC [3] [µM]	Activity [4]	Activity [5]	Activity [6]	Activity [7]
COc1cnc2ccc(=O)n(CCN3CCN(C(=S)Nc4ccc(Br)cc4)CC3)c2c1	1.06	0.49	3.8 (≈ 1.91 µg/mL)				
COc1cnc2ccc(=O)n(CCN3CCN(C(=S)Nc4ccc(Cl)cc4)CC3)c2c1	6.59	12.8	13.6 (≈ 6.25 µg/mL)				
COc1cnc2ccc(=O)n(CCN3CCN(C(=O)Nc4ccc([N+](=O)[O-])cc4)CC3)c2c1	5.08	0.29	3.45 (≈ 1.56 µg/mL)	Toxic	Toxic	Toxic	Toxic
COc1cnc2ccc(=O)n(CCN3CCN(C(=O)NCc4ccc(Cl)cc4)CC3)c2c1	24.6	0.92	6.6 (≈ 3.01 µg/mL)				
COc1cnc2ccc(=O)n(CCN3CCN(C(=O)Nc4ccc(C)cc4)CC3)c2c1	32.3	2.68	7.41 (≈ 3.12 µg/mL)				
COc1c(N2C[C@@H]3CCCN[C@@H]3C2)c(F)cc2c(=O)c(C(=O)O)cn(C3CC3)c12 [MOXIFLOXACIN]			2.4 (≈ 0.963 µg/mL)				
COc1cnc2ccc(=O)n(CCN3CCN(C(=S)NCc4ccc(Cl)cc4)CC3)c2c1	24.9	0.95	4.31 (≈ 2.03 µg/mL)				
COc1ccc(CNC(=O)N2CCN(CCn3c(=O)ccc4ncc(OC)cc43)CC2)cc1	37.6	14.6	27.7 (≈ 12.5 µg/mL)				
COc1cnc2ccc(=O)n(CCN3CCN(C(=O)Nc4ccc(Cl)cc4)CC3)c2c1	27	0.32	7.06 (≈ 3.12 µg/mL)			Toxic	Toxic
COc1cnc2ccc(=O)n(CCN3CCN(C(=S)Nc4ccc(C(C)=O)cc4)CC3)c2c1	3.16	16.4	10.7 (≈ 4.96 µg/mL)				
COc1cnc2ccc(=O)n(CCN3CCN(C(=O)Nc4ccccc4)CC3)c2c1	9.54	13.5	30.7 (≈ 12.5 µg/mL)				
COc1ccc(CNC(=S)N2CCN(CCn3c(=O)ccc4ncc(OC)cc43)CC2)cc1	17.1	15.5	26.7 (≈ 12.5 µg/mL)				
COc1cnc2ccc(=O)n(CCN3CCN(C(=S)Nc4ccccc4)CC3)c2c1	32.6	15.4	29.5 (≈ 12.5 µg/mL)				
COc1cnc2ccc(=O)n(CCN3CCN(Cc4ccc(Cl)cc4)CC3)c2c1	26.5	0.81	10.1 (≈ 4.17 µg/mL)				
COc1cnc2ccc(=O)n(CCN3CCN(C(=O)Nc4ccc(C(C)=O)cc4)CC3)c2c1	18.6	19.4	26.9 (≈ 12.1 µg/mL)				
COc1cnc2ccc(=O)n(CCN3CCN(Cc4ccc(F)cc4)CC3)c2c1	26.4	0.91	15 (≈ 5.95 µg/mL)				
COc1cnc2ccc(=O)n(CCN3CCN(C(=S)Nc4ccc(C)cc4)CC3)c2c1	26.8	11.5	10.7 (≈ 4.66 µg/mL)				
COc1cnc2ccc(=O)n(CCN3CCN(C(=S)Nc4ccc(F)cc4)CC3)c2c1	21.6	14.7	14.2 (≈ 6.25 µg/mL)				
COc1cnc2ccc(=O)n(CCN3CCN(Cc4ccccc4)CC3)c2c1	15	0.94	4.12 (≈ 1.56 µg/mL)				
CO[C@@H]1[C@@H](OC(N)=O)[C@@H](O)[C@H](Oc2ccc3c(O)c(NC(=O)c4ccc(O)c(CC=C(C)C)c4)c(=O)oc3c2C)OC1(C)C [NOVOBIOCIN]	19.3		> 200				
COc1cnc2ccc(=O)n(CCN3CCN(C(=O)Nc4ccc(F)cc4)CC3)c2c1	25.2	11.6	14.7 (≈ 6.25 µg/mL)				
CC[C@@H](CO)NCCN[C@@H](CC)CO [ETHAMBUTOL]			9.84 (≈ 2.01 µg/mL)				
COc1ccc(CN2CCN(CCn3c(=O)ccc4ncc(OC)cc43)CC2)cc1	15.9	1.34	3.82 (≈ 1.56 µg/mL)				
COc1cnc2ccc(=O)n(CCN3CCN(Cc4ccc(Br)cc4)CC3)c2c1	2.15	6.44	13.7 (≈ 6.25 µg/mL)				
COc1cnc2ccc(=O)n(CCN3CCN(Cc4ccc([N+](=O)[O-])cc4)CC3)c2c1	37.6	0.98	7.38 (≈ 3.13 µg/mL)				
COc1cnc2ccc(=O)n(CCN3CCN(C(=O)Nc4ccc(Br)cc4)CC3)c2c1	24.4	0.75	3.21 (≈ 1.56 µg/mL)				
COc1cnc2ccc(=O)n(CCN3CCN(C(=S)Nc4ccc([N+](=O)[O-])cc4)CC3)c2c1	17.3	18.5	26.7 (≈ 12.5 µg/mL)				
